The source of these data is patent US7094895B2, “Tyrosyl derivatives and their use as P2X7 receptor modulators” (King Pharmaceuticals Research & Development, Inc., priority 2001, dated 2006).

As usually defined, the IC50 is the midpoint of a concentration-inhibition curve.

One assay deals with T1, P2X7 receptor (Homo sapiens, UniProt Q99572).
T1 sequence (Q99572 1-595): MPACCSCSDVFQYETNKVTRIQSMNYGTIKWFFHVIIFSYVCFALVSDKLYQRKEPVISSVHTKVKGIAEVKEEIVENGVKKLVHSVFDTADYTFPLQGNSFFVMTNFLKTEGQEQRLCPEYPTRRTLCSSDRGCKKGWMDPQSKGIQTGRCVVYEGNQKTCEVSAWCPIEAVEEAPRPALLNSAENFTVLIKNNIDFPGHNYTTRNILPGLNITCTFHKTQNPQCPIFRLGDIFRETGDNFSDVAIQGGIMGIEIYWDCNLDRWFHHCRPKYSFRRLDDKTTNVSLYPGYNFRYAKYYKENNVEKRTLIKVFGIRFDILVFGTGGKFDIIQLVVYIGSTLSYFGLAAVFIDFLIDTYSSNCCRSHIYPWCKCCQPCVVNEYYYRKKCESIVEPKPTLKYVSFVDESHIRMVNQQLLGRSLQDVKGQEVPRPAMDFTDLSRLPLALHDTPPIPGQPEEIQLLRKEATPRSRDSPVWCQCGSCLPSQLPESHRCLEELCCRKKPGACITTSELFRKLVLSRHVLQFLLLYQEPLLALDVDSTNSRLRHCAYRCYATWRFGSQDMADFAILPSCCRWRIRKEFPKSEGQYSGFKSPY
Briefly: Inhibition of ATP-induced calcium influx in human monocytes (fura-2/AM). Format: cell-based. Also noted: endogenous in cells; host or cells: human monocytes. The following applies: inhibiting calcium influx in human monocytes in the presence of 1 mM ATP; read-out: P2X7 Antagonist Activity IC50. On the procedure: Table 1 illustrates the IC50 values for compounds toward inhibiting calcium influx in human monocytes in the presence of 1 mM ATP.
Ca^2+ measurements. Changes in Ca^2+ were measured with the fluorescent indicator fura-2/AM (Molecular Probes, Inc., Eugene, Oreg.) as described previously.^32 Briefly, cells were loaded with […] of fura-2/AM and incubated in a thermostat-controlled (37° C.) and magnetically stirred fluorometer cuvette (model LS50, Perkin-Elmer Ltd., Beaconsfield, UK). Intracellular Ca^2+ concentration was determined with the 340/380 excitation ratio at an emission wavelength of 500 nm. All experiments were repeated three times.
With “1-[(S)-N,O-bis-(isoquinolinesulfonyl)-N-methyl-tyrosyl]-4-(pyrimidin-2-yl)-piperazine”, the concentration for half-maximal inhibition (IC50) amounted to 79.8 nM.
The same measure, in the same setting: under “1-[(S)-N,O-bis-(isoquinolinesulfonyl)tyrosyl]-4-(o-tolyl)-piperazine” stands 28.8 nM; under “1-[(S)-N,O-bis-(isoquinolinesulfonyl)-N-methyl-tyrosyl]-4-(4-nitrophenyl)-piperazine”, 5.76 nM; under `CN([C@@H](Cc1ccc(OS(=O)(=O)c2cccc3cnccc23)cc1)C(=O)N1CCN(C(=O)c2ccc(F)cc2)CC1)S(=O)(=O)c1cccc2cnccc12` [1-[(S)-N,O-bis-(isoquinolinesulfonyl)-N-methyl-tyrosyl]-4-(4-fluorobenzoyl)-piperazine]], 380 nM.
With “1-[(S)-N,O-bis-(isoquinolinesulfonyl)-N-methyl-tyrosyl]-4-(4-methoxy-phenyl)-piperazine”, the IC50 came to 132 nM.
For the compound `CN([C@@H](Cc1ccc(OS(=O)(=O)c2cccc3cnccc23)cc1)C(=O)N1CCN(Cc2ccc(F)cc2)CC1)S(=O)(=O)c1cccc2cnccc12` [1-[(S)-N,O-bis-(isoquinolinesulfonyl)-N-methyl-tyrosyl]-4-(4-fluorobenzyl)-piperazine]], the 50% inhibitory concentration (IC50) worked out at 5.8 nM.
On the same count and under the same terms, under `Cc1ccccc1N1CCN(C(=O)[C@H](Cc2ccc(OS(=O)(=O)c3cccnc3)cc2)N(C)S(=O)(=O)c2cccnc2)CC1` [1-[(S)-N,O-bis-(3-pyridinesulfonyl)-N-methyl-tyrosyl]-4-(2-methylphenyl)-piperazine] stands 9120 nM; under “1-[(S)-N,O-bis-(isoquinolinesulfonyl)-N-methyl-tyrosyl]-4-phenethyl-piperazine”, 600 nM.
As for “1-[(S)-N,O-bis-(isoquinolinesulfonyl)-N-methyl-tyrosyl]-4-(3-chlorophenyl)-piperazine”, the half-maximal inhibitory concentration (IC50) is 14.1 nM.
Still for that read-out and setting: under `CN([C@@H](Cc1ccc(OS(=O)(=O)c2cccnc2)cc1)C(=O)N1CCN(c2ccccc2)CC1)S(=O)(=O)c1cccnc1` [1-[(S)-N,O-bis-(3-pyridinesulfonyl)-N-methyl-tyrosyl]-4-phenyl-piperazine] stands 955 nM; under “1-[(S)-N,O-bis-(isoquinolinesulfonyl)-N-methyl-tyrosyl]-4-(2-chlorophenyl)-piperazine”, 15.8 nM.
Same read-out and setting: with “1-[(S)-N,O-bis-(isoquinolinesulfonyl)tyrosyl]-4-(4-fluorophenyl)-piperazine” the figure was 6.02 nM.
On the same count and under the same terms, with `CN([C@@H](Cc1ccc(OS(=O)(=O)c2cccc3cnccc23)cc1)C(=O)N1CCN(c2ccc(I)cc2)CC1)S(=O)(=O)c1cccc2cnccc12` [1-[(S)-N,O-bis-(isoquinolinesulfonyl)-N-methyl-tyrosyl]-4-(4-iodophenyl)-piperazine]] the figure was 176 nM; with “1-[(S)-N,O-bis-(isoquinolinesulfonyl)-N-methyl-tyrosyl]-4-benzylpiperazine”, 21 nM.
Turning to “1-[(S)-N,O-bis-(isoquinolinesulfonyl)-N-methyl-tyrosyl]-4-(4-aminophenyl)-piperazine”, the concentration for half-maximal inhibition (IC50) was 101 nM.
Still for that read-out and setting: with “1-[(S)-N,O-bis-(isoquinolinesulfonyl)-N-methyl-tyrosyl]-4-(pyridin-2-yl)-piperazine” the figure was 170 nM; with “1-[(S)-N,O-bis-(isoquinolinesulfonyl)-N-methyl-tyrosyl]-4-benzylpiperidine”, 65.3 nM; with “1-[(S)-N,O-bis-(isoquinolinesulfonyl)-N-methyl-tyrosyl]-4-o-tolyl-piperazine”, 15.1 nM.
As for “1-[(S)-N,O-bis-(isoquinolinesulfonyl)-N-methyl-tyrosyl]-4-(4-fluorophenyl)-piperazine”, the concentration for half-maximal inhibition (IC50) was determined as 1.33 nM.
Still for that read-out and setting: with `CN([C@@H](Cc1ccc(OS(=O)(=O)c2cccc3cnccc23)cc1)C(=O)N1CCN(c2ccc(Cl)cc2)CC1)S(=O)(=O)c1cccc2cnccc12` [1-[(S)-N,O-bis-(isoquinolinesulfonyl)-N-methyl-tyrosyl]-4-(4-chlorophenyl)-piperazine]] the figure was 105 nM; with `CC(=O)c1ccc(N2CCN(C(=O)[C@H](Cc3ccc(OS(=O)(=O)c4cccc5cnccc45)cc3)N(C)S(=O)(=O)c3cccc4cnccc34)CC2)cc1` [1-[(S)-N,O-bis-(isoquinolinesulfonyl)-N-methyl-tyrosyl]-4-(4-acetylphenyl)-piperazine]], 70.8 nM.
Turning to `CN([C@@H](Cc1ccc(OS(=O)(=O)c2cccc3cnccc23)cc1)C(=O)N1CCN(c2ccccc2F)CC1)S(=O)(=O)c1cccc2cnccc12` [1-[(S)-N,O-bis-(isoquinolinesulfonyl)-N-methyl-tyrosyl]-4-(2-fluorophenyl)-piperazine]], the IC50 worked out at 18.5 nM.
Still for that read-out and setting: under “1-[(S)-N,O-bis-(isoquinolinesulfonyl)-N-methyl-tyrosyl]-4-(2,3-dimethylphenyl)-piperazine” stands 1120 nM; under “1-[(S)-N,O-bis-(isoquinolinesulfonyl)-N-methyl-tyrosyl]-4-(p-tolyl)-piperazine”, 13.5 nM; under `CN([C@@H](Cc1ccc(OS(=O)(=O)c2cccc3cnccc23)cc1)C(=O)N1CCN(c2ccc(C#N)cc2)CC1)S(=O)(=O)c1cccc2cnccc12` [1-[(S)-N,O-bis-(isoquinolinesulfonyl)-N-methyl-tyrosyl]-4-(4-cyanophenyl)-piperazine]], 97.7 nM.
For `CN([C@@H](Cc1ccc(OS(=O)(=O)c2cccc3cnccc23)cc1)C(=O)N1CCN(c2ccccc2)CC1)S(=O)(=O)c1cccc2cnccc12` [KN62, 1-N,0-(bis(1,5-isoquinolinesulfonyl)-N-methyl-L-tyrosyl)-4-phenylpiperazine], the concentration for half-maximal inhibition (IC50) turned out to be 51 nM.
Same read-out and setting: under `CN([C@@H](Cc1ccc(OS(=O)(=O)c2cccc3cnccc23)cc1)C(=O)N1CCN(Cc2ccc([N+](=O)[O-])cc2)CC1)S(=O)(=O)c1cccc2cnccc12` [1-[(S)-N,O-bis-(isoquinolinesulfonyl)-N-methyl-tyrosyl]-4-(4-nitrobenzyl)-piperazine]] stands 12.3 nM.
On the same count and under the same terms, under “1-[(S)-N,O-bis-(isoquinolinesulfonyl)-N-methyl-tyrosyl]-4-(3,4-dichloro-phenyl)-piperazine” stands 33.9 nM; under “1-[(S)-N,O-bis-(isoquinolinesulfonyl)-N-methyl-tyrosyl]-4-(3-trifluoromethyl-phenyl)-piperazine”, 31.1 nM.
Same read-out and setting: under “1-[(S)-N,O-bis-(isoquinolinesulfonyl)-N-methyl-tyrosyl]-4-(2-methoxy-phenyl)-piperazine” stands 84.1 nM.

A further assay deals with T1, P2X7 receptor.
Experiment: not given
The note with it: at the concentration of 500 nM; cited from earlier work.
Regarding `CN([C@@H](Cc1ccc(OS(=O)(=O)c2cccc3cnccc23)cc1)C(=O)N1CCN(c2ccccc2)CC1)S(=O)(=O)c1cccc2cnccc12` [KN62, 1-N,0-(bis(1,5-isoquinolinesulfonyl)-N-methyl-L-tyrosyl)-4-phenylpiperazine], the “inhibition of the P2X7 receptor” value was “complete inhibition”.

The test system of the next assay is Adriamycin-resistant cells (HL-60).
Experiment: not given
The note with it: KN62 2 μM (non-cytotoxic), Adriamycin-resistant HL-60 cells; cited from earlier work.
As to `CN([C@@H](Cc1ccc(OS(=O)(=O)c2cccc3cnccc23)cc1)C(=O)N1CCN(c2ccccc2)CC1)S(=O)(=O)c1cccc2cnccc12` [KN62, 1-N,0-(bis(1,5-isoquinolinesulfonyl)-N-methyl-L-tyrosyl)-4-phenylpiperazine], the “enhancement of VP-16 induced topoisomerase II-mediated DNA cleavable complex formation” value was 2- to 4 fold.
